Measured values as given in US7547718B2, “Substituted imidazoles” (Pfizer Limited, priority 2006, dated 2009).

tested on: Rhipicephalus sanguineus (brown dog tick); test: In vitro tick assay (Rhip. Funct.); conditions: unfed R. sanguineus in precoated glass vials; lowest dose at which all five ticks were seen moving; observed at 24, 48 and 72 hours
From the text: Application of octopamine agonists to acarids for example, ticks, causes distinct behavioural changes compared to untreated control ticks. Treated ticks become agitated and move constantly, this prevents ticks attaching and feeding on a host animal to which the compound has been applied. Normal behaviour of ticks is to go into stasis when all other external stimuli are removed. Agitation and movement can be measured in vitro in the laboratory to predict efficacy and potency in vivo.
The assay was run using unfed Rhipicephalus sanguineus (brown dog tick) and precoated glass vials with an inner surface area of 34.5 cm^2. Each compound was tested in duplicate.
Compound (345 μg) was dissolved in isopropyl alcohol (500 μl) and delivered to each vial. The vials were placed on a tilting roller in a fume hood for 2 hours to allow the isopropyl alcohol to evaporate giving a compound concentration for each vial of 10 μg/cm^2. Five R. sanguineus (male and female) were added to each coated vial and the vial sealed with a firm wad of cotton wool. Vials were then kept, undisturbed, on the bench at room temperature. Observation and recordings of activity were taken at 24, 48 and 72 hours after addition of ticks to the vials. The ED100 value was determined as the lowest dose at which all five ticks were seen moving around inside the vial.

SMILES	Rhip. Funct. ED100
Cc1cccc(C(C)c2nccn2COC(=O)CC(C)C)c1C (centres unmarked) [Example 68, {2-[1-(2,3-Dimethylphenyl)ethyl]-1H-imidazol-1-yl}methyl 3-methyl butanoate]	0.03 mg/cm^2
Cc1cccc([C@H](C)c2nccn2C(=O)OCc2c(C)c(C)c(C)c(C)c2C)c1C [Example 294, Pentamethylbenzyl 2-[(1S)-1-(2,3-dimethylphenyl)ethyl]-1H -imidazole-1-carboxylate]	>0.03 mg/cm^2
Cc1cccc(C(C)c2nccn2COC(=O)OC2CCC2)c1C (centres unmarked) [Example 141, Cyclobutyl{2-[1-(2,3-dimethylphenyl)ethyl]-1H-imidazol-1-yl}methyl carbonate]	0.03 mg/cm^2
CCC(CC)COC(=O)n1ccnc1[C@@H](C)c1cccc(C)c1C [Example 233, 2-Ethyl butyl 2-[(1S)-1-(2,3-dimethylphenyl)ethyl]-1H-imidazole-1-carboxylate]	<=10 mg/cm^2
CCC(C)C(C)COC(=O)n1ccnc1[C@@H](C)c1cccc(C)c1C (stereo partly drawn) [Example 253, 2,3-Dimethyl pentyl 2-[(1S)-1-(2,3-dimethylphenyl)ethyl]-1H-imidazole-1-carboxylate]	0.1 mg/cm^2
Cc1cccc(C(C)c2nccn2COC(=O)NCCc2ccc(Cl)cc2Cl)c1C (centres unmarked) [Example 148, {2-[1-(2,3-Dimethylphenyl)ethyl]-1H-imidazol-1-yl}methyl[2-(2,4-dichlorophenyl)ethyl]carbamate]	>1 mg/cm^2
Cc1cccc(C(C)c2nccn2COC(=O)OCCC(C)C)c1C (centres unmarked) [Example 139, {2-[1-(2,3-Dimethylphenyl)ethyl]-1H-imidazol-1-yl}methyl 3-methyl butyl carbonate]	<=0.03 mg/cm^2
Cc1cccc([C@H](C)c2nccn2C(=O)OCc2c(F)c(F)c(F)c(F)c2F)c1C [Example 270, Pentafluorobenzyl 2-[(1S)-1-(2,3-dimethylphenyl)ethyl]-1H -imidazole-1-carboxylate]	<=10 mg/cm^2
